{"source": "patent US20230399360A1", "about": "“TERLIPRESSIN-OCTADECANEDIOIC ACID CONJUGATE FOR VASOCONSTRICTIVE THERAPY” (Northwestern University, priority 2019, published 2023)", "key": {"[1]": {"assay": "Non-invasive tail-cuff systolic blood pressure measurement in mice", "format": "in vivo, C57BL/6 mice", "conditions": "for increase in systolic blood pressure: C57BL mice, intraperitoneal injection, 0.1 to 10 μg/gr body weight, 20 minutes of measurement, compared with PBS vehicle"}, "in vivo": {"assay": "in vivo", "conditions": "mouse", "experimental": "(§1) Blood samples were drawn from the animals (approximately 100 μl) at different time points (1 hr, 3 hr, 6 hr, 24 hr) following the injection. The plasma was separated from the whole blood by centrifugation at 7,000 RPM for 10 minutes and the supernatant was transferred to a new tube. To separate the peptides or peptide conjugates from the plasma proteins, the proteins were denatured using a 7M guanidinium hydrochloride solution mixed 1:1 with the plasma and incubated at room temperature for 15 minutes. Subsequently, to the solution was diluted 10-fold with cold ethanol and the samples were incubated at −20° C. After 1 hour incubation the samples were centrifuged at 10,000 RPM for 10 minutes to precipitate the proteins, and the supernatant was transferred to a new tube. Samples were kept at −80° C. until analyzed.\n(§2) 5-20 μl of the ethanol solution were injected to a QTRAP 6500+LC-MS/MS system (SCIEX) for detecting the drug concentration. Mass spectra were obtained and the areas under the curves were evaluated against a calibration curve made formerly.\n(§3) Blood pressure measurements were taken for the first 20 minutes following drug injection, and subsequently blood samples were drawn at 1, 3, 6 and 24 hours."}, "V1 receptor": {"target": "T1, V1 receptor (Homo sapiens, UniProt P37288)", "T1 construct": "Primary human aortic smooth muscle cells (ATCC, PCS-100-012 cell line) were cultured in vascular cell basal medium; host or cells: primary human aortic smooth muscle cells", "T1 sequence (P37288 whole entry)": "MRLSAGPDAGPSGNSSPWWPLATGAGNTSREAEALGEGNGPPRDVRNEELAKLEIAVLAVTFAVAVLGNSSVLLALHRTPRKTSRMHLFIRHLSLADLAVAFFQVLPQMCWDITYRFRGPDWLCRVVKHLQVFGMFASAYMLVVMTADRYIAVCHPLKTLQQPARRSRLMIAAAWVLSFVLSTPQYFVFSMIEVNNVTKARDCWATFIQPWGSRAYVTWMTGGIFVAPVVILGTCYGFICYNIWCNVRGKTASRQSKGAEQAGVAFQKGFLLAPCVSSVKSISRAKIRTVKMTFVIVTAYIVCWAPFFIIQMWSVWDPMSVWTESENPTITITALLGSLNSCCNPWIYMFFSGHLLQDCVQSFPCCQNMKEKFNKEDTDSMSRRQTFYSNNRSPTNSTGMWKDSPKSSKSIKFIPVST", "assay": "Calcium influx assay (Fluo-4) in primary human aortic smooth muscle cells", "format": "cell-based", "conditions": "10^-8 to 10^-4 M, fluorescence over 5 min", "protocol": "Primary human aortic smooth muscle cells (ATCC, PCS-100-012 cell line) were cultured in vascular cell basal medium supplemented with rhFGF-basic 5 ng/mL, rh insulin 5 μg/mL, ascorbic acid 50 μg/mL, L-glutamine 10 mM, rh EGF 5 ng/mL, fetal bovine serum 5%.\nCalcium influx assays were performed using Fluo-4 direct calcium assay kit (ThermoFisher) on cells between passage numbers 3 to 6. To this end, cells were passaged and plated in a 96-well black tissue culture plate in a concentration of 10,000 cells per well followed by incubation in 37° C. and 5% CO2 for 48 hours. Cells were loaded with the dye and incubated for 1 hr at 37° C. and 5% CO2. Then, terlipressin peptide or terlipressin-ODDA was added to the wells in concentrations ranging from 10^−8 to 10^−4 M, and fluorescence was measured immediately on a Perkin Elmer EnSpire 2300 plate reader. Signal was measured at 530 nm following excitation at 488 nm at 999 time points over a 5 min period."}, "[2]": {"conditions": "mouse, in vivo", "experimental": "as §1, §2, §3"}, "[3]": {"conditions": "human, in vivo; cited from earlier work"}, "[4]": {"conditions": "listed as terlipressin conjugate"}, "[5]": {"conditions": "mice, systolic blood pressure vs baseline (FIG. 8)"}}, "note": "Bridge positions count the residues as written; N and C are the ends. Peptide text beside a SMILES is read from it. * marks the point of attachment. C18 diacid = O=C(O)CCCCCCCCCCCCCCCCC(=O)*"}
{"smiles": "NCCCCC(NC(=O)C1CCCN1C(=O)C1CSSCC(NC(=O)CNC(=O)CNC(=O)CNC(=O)CCCCCCCCCCCCCCCCC(=O)O)C(=O)NC(Cc2ccc(O)cc2)C(=O)NC(Cc2ccccc2)C(=O)NC(CCC(N)=O)C(=O)NC(CC(N)=O)C(=O)N1)C(=O)NCC(N)=O", "note": "(stereo not shown) [C18-terlipressin, octadecanedioic acid-terlipressin] ({C18 diacid}-GGGCYFQNCPKG-NH2; disulfide 4-9; configuration not given here)", "values": [{"measurement": "increase in systolic blood pressure", "setting": "[1]", "result": "clear increase in pressure"}, {"measurement": "increase in systolic blood pressure", "setting": "[1]; listed as C18 ODDA-terlipressin conjugates", "result": "increase the systolic blood pressure"}, {"measurement": "increase in systolic blood pressure", "setting": "[1]; listed as ODDA-terlipressin conjugates", "result": "increase the systolic blood pressure"}, {"measurement": "increase in systolic blood pressure", "setting": "[1]; [4]", "result": "Rise in blood pressure was observed"}, {"measurement": "course of systolic blood pressure over time after injection", "setting": "[1]; [5]", "result": "more stable pressure over time"}, {"measurement": "half-life", "setting": "in vivo", "result": "~1", "unit": "h"}, {"measurement": "activation of smooth muscle cells indicated by influx of intracellular calcium", "setting": "V1 receptor; listed as conjugate", "result": "can stimulate vasocontraction in cultured smooth muscle cells"}, {"measurement": "activation of smooth muscle cells indicated by influx of intracellular calcium", "setting": "V1 receptor; [4]", "result": "can stimulate response in cultured smooth muscle cells"}, {"measurement": "activation of smooth muscle cells indicated by influx of intracellular calcium", "setting": "V1 receptor; listed as terlipressin conjugates", "result": "can bind to and activate smooth muscle cells"}, {"measurement": "detection in plasma by LC-MS-MS", "setting": "[2]", "result": "very sharp and clear peaks"}, {"measurement": "half-lifetime in plasma", "setting": "[2]", "result": "about 1 hour"}]}
{"smiles": "NCCCC[C@H](NC(=O)[C@@H]1CCCN1C(=O)[C@@H]1CSSC[C@H](NC(=O)CNC(=O)CNC(=O)CN)C(=O)N[C@@H](Cc2ccc(O)cc2)C(=O)N[C@@H](Cc2ccccc2)C(=O)N[C@@H](CCC(N)=O)C(=O)N[C@@H](CC(N)=O)C(=O)N1)C(=O)NCC(N)=O", "note": "[terlipressin, Terlipressin] (H-GGGCYFQNCPKG-NH2; disulfide 4-9)", "values": [{"measurement": "half life following IV administration", "setting": "[3]", "result": "less than 6 minutes"}, {"measurement": "increase in systolic blood pressure", "setting": "[1]", "result": "clear increase in pressure"}, {"measurement": "course of systolic blood pressure over time after injection", "setting": "[1]; [5]", "result": "continuous drop in pressure"}, {"measurement": "time of peak in measured blood pressure following the injection", "setting": "[1]; [5]", "result": 5, "unit": "min"}, {"measurement": "detection in plasma by LC-MS-MS", "setting": "[2]", "result": "no terlipressin was detected at all"}]}
